The values below come from patent publication US10640534B2 (Agios Pharmaceuticals, Inc., priority 2012, dated 2020).

The test relates to U87MG cells. Kind of test: Cellular assay, inhibition of 2-HG production in U87MG cells. It counts as cell-based. The conditions noted are these: Homo sapiens, U-87 MG, 48 h. In a few lines:
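HT1080 or U87MG cells (U87MG kept with 500 ug/mL G418) seeded at 5000 cells/well and treated with compound at 0.2% final DMSO. Incubated 48 h at 37 °C. 2-HG inhibition determined by LC-MS. Viability read by CellTiter-Glo luminescence at 72 h post-dose.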

In the case of `N#Cc1ccnc(N2C(=O)N(CCO)C[C@H]2C(=O)N(c2cccc(F)c2)C(C(=O)NC2CC(F)(F)C2)c2ccccc2Cl)c1` (stereo partly drawn) [Compound 112, (4S)—N-(1-(2-Chlorophenyl)-2-(3,3-difluorocyclobutyl-amino)-2-oxoethyl)-3-(4-cyanopyridin-2-yl)-N-(3-fluorophenyl)-1-(2-hydroxyeth-yl)-2-oxoimidazolidine-4-carboxamide], the IC50 (in general, the point on the concentration scale where inhibition reaches its midpoint) is below 100 nM. Then `N#Cc1ccnc(N2C(=O)[C@H](O)C[C@H]2C(=O)N(c2cccc(F)c2)[C@H](C(=O)NC2CC(F)(F)C2)c2ccccc2Cl)c1` [Compound 113, (2S,4R)—N—((S)-1-(2-Chlorophenyl)-2-(3,3-difluorocyclobutylamino)-2-oxoethyl)-1-(4-cyanopyridin-2-yl)-N-(3-fluorophenyl)-4-hydroxy-5-oxopyrrolidine-2-carboxamide], with below 100 nM; and `N#Cc1ccnc(N2C(=O)[C@H](O)C[C@H]2C(=O)N(c2cc(F)cc(F)c2)[C@@H](C(=O)NC2CC(F)(F)C2)c2ccccc2Cl)c1` [Compound 114, (2S,4R)—N—((R)-1-(2-Chlorophenyl)-2-((3,3-difluorocyclobutyl)amino)-2-oxoethyl)-1-(4-cyanopyridin-2-yl)-N-(3,5-difluorophenyl)-4-hydroxy-5-oxopyrrolidine-2-carboxamide], with below 100 nM. As to `N#Cc1ccnc(N2C(=O)[C@H](O)C[C@H]2C(=O)N(c2cc(F)cc(F)c2)[C@H](C(=O)NC2CC(F)(F)C2)c2ccccc2Cl)c1` [Compound 115, (2S,4R)—N—((S)-1-(2-Chlorophenyl)-2-((3,3-difluorocyclobutyl)amino)-2-oxoethyl)-1-(4-cyanopyridin-2-yl)-N-(3,5-difluorophenyl)-4-hydroxy-5-oxopyrrolidine-2-carboxamide], the IC50 is below 100 nM.

On to `N#Cc1ccnc(N2C(=O)[C@H](O)C[C@H]2C(=O)N(c2cc(F)cc(F)c2)[C@@H](C(=O)NC2CC(F)(F)C2)c2ccccc2Cl)n1` [Compound 116, (2S,4R)—N—((R)-1-(2-Chlorophenyl)-2-((3,3-difluorocyclobutyl)amino)-2-oxoethyl)-1-(4-cyanopyrimidin-2-yl)-N-(3,5-difluorophenyl)-4-hydroxy-5-oxopyrrolidine-2-carboxamide], for which the IC50 is 100 to 500 nM. To `N#Cc1ccnc(N2C(=O)[C@H](O)C[C@H]2C(=O)N(c2cc(F)cc(F)c2)[C@H](C(=O)NC2CC(F)(F)C2)c2ccccc2Cl)n1` [Compound 117, (2S,4R)—N—((S)-1-(2-Chlorophenyl)-2-((3,3-difluorocyclobutyl)amino)-2-oxoethyl)-1-(4-cyanopyrimidin-2-yl)-N-(3,5-difluorophenyl)-4-hydroxy-5-oxopyrrolidine-2-carboxamide] belongs below 100 nM; to `N#Cc1ccnc(N2C(=O)[C@@H](O)C[C@H]2C(=O)N(c2cccc(F)c2)[C@H](C(=O)NC2CC(F)(F)C2)c2ccccc2Cl)c1` [Compound 118, (2S,4S)—N—((S)-1-(2-Chlorophenyl)-2-(3,3-difluorocyclobutylamino)-2-oxoethyl)-1-(4-cyano-pyridin-2-yl)-N-(3-fluorophenyl)-4-hydroxy-5-oxopyrrolidine-2-carboxamide], below 100 nM; to `N#Cc1ccnc(N2C(=O)[C@@H](O)C[C@H]2C(=O)N(c2cccc(F)c2)[C@H](C(=O)NC2CC(F)(F)C2)c2ccccc2Cl)n1` [Compound 119, (2S,4S)—N—((S)-1-(2-Chlorophenyl)-2-(3,3-difluorocyclobutylamino)-2-oxoethyl)-1-(4-cyanopyrimidin-2-yl)-N-(3-fluorophenyl)-4-hydroxy-5-oxopyrrolidine-2-carboxamide], 100 to 500 nM. For `N#Cc1ccnc(N2C(=O)[C@H](O)C[C@H]2C(=O)N(c2cccc(F)c2)[C@H](C(=O)NC2CC(F)(F)C2)c2ccccc2Cl)n1` [Compound 120, (2S,4R)—N—((S)-1-(2-Chlorophenyl)-2-((3,3-difluorocyclobutyl)amino)-2-oxoethyl)-1-(4-cyanopyrimidin-2-yl)-N-(3-fluorophenyl)-4-hydroxy-5-oxopyrrolidine-2-carboxamide], the half-maximal inhibitory concentration (IC50) fell in the range of 100 to 500 nM. Then `N#Cc1ccnc(N2C(=O)[C@H](O)C[C@H]2C(=O)N(c2cccc(F)c2)[C@H](C(=O)NC2CCC(F)(F)CC2)c2ccccc2Cl)c1` [Compound 121, (2S,4R)—N—((S)-1-(2-Chlorophenyl)-2-((4,4-difluorocyclohexyl)amino)-2-oxoethyl)-1-(4-cyanopyridin-2-yl)-N-(3-fluorophenyl)-4-hydroxy-5-oxopyrrolidine-2-carboxamide], with below 100 nM; and `N#Cc1ccnc(N2C(=O)[C@H](O)C[C@H]2C(=O)N(c2cccc(F)c2)[C@@H](C(=O)NC2CCC(F)(F)CC2)c2ccccc2Cl)n1` [Compound 122, (2S,4R)—N—((R)-1-(2-Chlorophenyl)-2-((4,4-difluorocyclohexyl)amino)-2-oxoethyl)-1-(4-cyanopyrimidin-2-yl)-N-(3-fluorophenyl)-4-hydroxy-5-oxopyrrolidine-2-carboxamide], with 100 to 500 nM; and `N#Cc1ccnc(N2C(=O)[C@H](O)C[C@H]2C(=O)N(c2cccc(F)c2)[C@H](C(=O)NC2CCC(F)(F)CC2)c2ccccc2Cl)n1` [Compound 123, (2S,4R)—N—((S)-1-(2-Chlorophenyl)-2-((4,4-difluorocyclohexyl)amino)-2-oxoethyl)-1-(4-cyanopyrimidin-2-yl)-N-(3-fluorophenyl)-4-hydroxy-5-oxopyrrolidine-2-carboxamide], with below 100 nM.

`N#Cc1ccnc(N2C(=O)[C@H](O)C[C@H]2C(=O)N(c2cc(F)cc(F)c2)[C@@H](C(=O)NC2CCC(F)(F)CC2)c2ccccc2Cl)c1` [Compound 124, (2S,4R)—N—((R)-1-(2-Chlorophenyl)-2-(4,4-difluorocyclohexylamino)-2-oxoethyl)-1-(4-cyanopyridin-2-yl)-N-(3,5-difluorophenyl)-4-hydroxy-5-oxopyrrolidine-2-carboxamide] gave an IC50 below 100 nM. Then `N#Cc1ccnc(N2C(=O)[C@H](O)C[C@H]2C(=O)N(c2cc(F)cc(F)c2)[C@H](C(=O)NC2CCC(F)(F)CC2)c2ccccc2Cl)c1` [Compound 125, (2S,4R)—N—((S)-1-(2-Chlorophenyl)-2-(4,4-difluorocyclohexylamino)-2-oxoethyl)-1-(4-cyanopyridin-2-yl)-N-(3,5-difluorophenyl)-4-hydroxy-5-oxopyrrolidine-2-carboxamide], with below 100 nM; and `N#Cc1ccnc(N2C(=O)[C@H](O)C[C@H]2C(=O)N(c2cc(F)cc(F)c2)[C@@H](C(=O)NC2CCC(F)(F)CC2)c2ccccc2Cl)n1` [Compound 126, (2S,4R)—N—((R)-1-(2-Chlorophenyl)-2-(4,4-difluorocyclohexylamino)-2-oxoethyl)-1-(4-cyanopyrimidin-2-yl)-N-(3,5-difluorophenyl)-4-hydroxy-5-oxopyrrolidine-2-carboxamide], with 100 to 500 nM; and `N#Cc1ccnc(N2C(=O)[C@H](O)C[C@H]2C(=O)N(c2cc(F)cc(F)c2)[C@H](C(=O)NC2CCC(F)(F)CC2)c2ccccc2Cl)n1` [Compound 127, (2S,4R)—N—((S)-1-(2-Chlorophenyl)-2-(4,4-difluorocyclohexylamino)-2-oxoethyl)-1-(4-cyanopyrimidin-2-yl)-N-(3,5-difluorophenyl)-4-hydroxy-5-oxopyrrolidine-2-carboxamide], with below 100 nM. Turning to `N#Cc1cccc(N(C(=O)[C@@H]2CCC(=O)N2c2cc(C#N)ccn2)[C@H](C(=O)NC2CC(F)(F)C2)c2ccccc2Cl)c1` [Compound 128, (S)—N—((S)-1-(2-Chlorophenyl)-2-((3,3-difluorocyclobutyl)amino)-2-oxoethyl)-N-(3-cyano-phenyl)-1-(4-cyanopyridin-2-yl)-5-oxopyrrolidine-2-carboxamide], the IC50 was below 100 nM. `COc1cccc(N(C(=O)[C@@H]2CCC(=O)N2c2cc(C#N)ccn2)[C@H](C(=O)NC2CC(F)(F)C2)c2ccccc2Cl)c1` [Compound 129, (S)—N—((S)-1-(2C)-2-((3,3-difluorocyclobutyl)amino)-2-oxoethyl)-1-(4-cyanopyridin-2-yl)-N-(3-methoxyphenyl)-5-oxopyrrolidine-2-carboxamide] gave a concentration for half-maximal inhibition (IC50) below 100 nM. Regarding `N#Cc1ccnc(N2C(=O)CC[C@H]2C(=O)N(c2cccc(CO)c2)[C@H](C(=O)NC2CC(F)(F)C2)c2ccccc2Cl)c1` [Compound 131, (S)—N—((S)-1-(2-Chlorophenyl)-2-(3,3-difluorocyclobutylamino)-2-oxoethyl)-1-(4-cyanopyridin-2-yl)-N-(3-(hydroxymethyl)phenyl)-5-oxopyrrolidine-2-carboxamide], the IC50 was below 100 nM. To `N#Cc1ccnc(N2C(=O)OC[C@H]2C(=O)N(c2cncc(F)c2)[C@H](C(=O)NC2CCC(F)(F)CC2)c2ccccc2Cl)c1` [Compound 132, (S)—N—((S)-1-(2-Chlorophenyl)-2-((4,4-difluorocyclohexyl)amino)-2-oxoethyl)-3-(4-cyanopyridin-2-yl)-N-(5-fluoropyridin-3-yl)-2-oxooxazolidine-4-carboxamide] belongs below 100 nM. Then `N#Cc1ccnc(N2C(=O)OCC[C@H]2C(=O)N(c2cc(F)cc(F)c2)[C@H](C(=O)NC2CC(F)(F)C2)c2ccccc2Cl)c1` [Compound 133, (S)—N—((S)-1-(2-Chlorophenyl)-2-((3,3-difluorocyclobutyl)amino)-2-oxoethyl)-3-(4-cyanopyridin-2-yl)-N-(3,5-difluorophenyl)-2-oxo-1,3-oxazinane-4-carboxamide], with below 100 nM. As for `N#Cc1ccnc(N2C(=O)OC[C@H]2C(=O)N(c2cncc(F)c2)[C@H](C(=O)NC2CC(F)(F)C2)c2ccccc2Cl)c1` [Compound 135, (S)—N—((S)-1-(2-Chlorophenyl)-2-((3,3-difluorocyclobutyl)amino)-2-oxoethyl)-3-(4-cyanopyridin-2-yl)-N-(5-fluoropyridin-3-yl)-2-oxooxazolidine-4-carboxamide], the IC50 is below 100 nM.
